Data published in the NIST ThermoML archive (doi:10.1021/je700288s).
Values joined by “and” are separate entries in the source; they are usually repeats but may differ in a detail not shown here. Equal entries are not always repeated. Numbers after ± are expanded uncertainties.

Columns and labels:
[1] = mn = molality of the nth substance listed, in mol/kg; conditions: 101 kPa, Liquid; for speed of sound: Sing-around technique in a fixed-path interferometer; for mass density: Vibrating tube method
[2] = 283.15 K; 101 kPa; Liquid; Vibrating tube method

With `C[C@H](N)C(=O)O` [(S)-2-aminopropanoic acid] + O the speed of sound ([1]; 283.15 K, m1 = 0.23) was 1464.4 ± 1.1 m/s and 1464.1 ± 1.1 m/s, the speed of sound ([1]; 283.15 K, m1 = 0.47) was 1480.4 ± 1.1 m/s and 1480.5 ± 1.1 m/s and the speed of sound ([1]; 283.15 K, m1 = 0.72) was 1496.7 ± 1.2 m/s and 1495.8 ± 1.2 m/s. For the same compound, the mass density ([1]; 283.15 K, m1 = 0.23) was 1006.29 ± 0.12 kg/m3 and 1006.34 ± 0.12 kg/m3, the mass density ([1]; 283.15 K, m1 = 0.47) was 1012.74 ± 0.13 kg/m3 and 1012.69 ± 0.13 kg/m3 and the mass density ([1]; 283.15 K, m1 = 0.72) was 1018.71 ± 0.14 kg/m3 and 1019.09 ± 0.14 kg/m3. For the same compound, the speed of sound ([1]; 288.15 K, m1 = 0.23) was 1482 ± 1.1 m/s and 1481.8 ± 1.1 m/s, the speed of sound ([1]; 288.15 K, m1 = 0.47) was 1497.6 ± 1.1 m/s and 1497.4 ± 1.1 m/s and the speed of sound ([1]; 288.15 K, m1 = 0.72) was 1512.2 ± 1.2 m/s and 1513 ± 1.2 m/s. For the same compound, the mass density ([1]; 288.15 K, m1 = 0.23) was 1005.65 ± 0.12 kg/m3 and 1005.61 ± 0.12 kg/m3, the mass density ([1]; 288.15 K, m1 = 0.47) was 1011.96 ± 0.13 kg/m3 and 1011.92 ± 0.13 kg/m3 and the mass density ([1]; 288.15 K, m1 = 0.72) was 1017.87 ± 0.14 kg/m3 and 1018.24 ± 0.14 kg/m3. The speed of sound ([1]; 293.15 K, m1 = 0.23) was 1497.7 ± 1.1 m/s and 1497.4 ± 1.1 m/s, the speed of sound ([1]; 293.15 K, m1 = 0.47) was 1512.4 ± 1.1 m/s and 1512.6 ± 1.1 m/s and the speed of sound ([1]; 293.15 K, m1 = 0.72) was 1527.5 ± 1.2 m/s and 1526.7 ± 1.2 m/s. For the same compound, the mass density ([1]; 293.15 K, m1 = 0.23) was 1004.68 ± 0.12 kg/m3 and 1004.64 ± 0.12 kg/m3, the mass density ([1]; 293.15 K, m1 = 0.47) was 1010.93 ± 0.13 kg/m3 and 1010.89 ± 0.13 kg/m3 and the mass density ([1]; 293.15 K, m1 = 0.72) was 1016.77 ± 0.14 kg/m3 and 1017.14 ± 0.14 kg/m3. The speed of sound ([1]; 298.15 K, m1 = 0.23) was 1511.4 ± 1.1 m/s and 1511.1 ± 1.1 m/s, the speed of sound ([1]; 298.15 K, m1 = 0.47) was 1525.6 ± 1.1 m/s and 1525.8 ± 1.1 m/s and the speed of sound ([1]; 298.15 K, m1 = 0.72) was 1540.1 ± 1.2 m/s and 1539.4 ± 1.2 m/s. The mass density ([1]; 298.15 K, m1 = 0.23) was 1003.46 ± 0.12 kg/m3 and 1003.43 ± 0.12 kg/m3, the mass density ([1]; 298.15 K, m1 = 0.47) was 1009.62 ± 0.13 kg/m3 and 1009.66 ± 0.13 kg/m3 and the mass density ([1]; 298.15 K, m1 = 0.72) was 1015.82 ± 0.14 kg/m3 and 1015.45 ± 0.14 kg/m3. The speed of sound ([1]; 303.15 K, m1 = 0.23) was 1523.3 ± 1.1 m/s and 1523.1 ± 1.1 m/s, the speed of sound ([1]; 303.15 K, m1 = 0.47) was 1537.1 ± 1.1 m/s and 1537.2 ± 1.1 m/s and the speed of sound ([1]; 303.15 K, m1 = 0.72) was 1551 ± 1.2 m/s and 1550.3 ± 1.2 m/s. The mass density ([1]; 303.15 K, m1 = 0.23) was 1001.98 ± 0.12 kg/m3 and 1002.01 ± 0.12 kg/m3, the mass density ([1]; 303.15 K, m1 = 0.47) was 1008.13 ± 0.13 kg/m3 and 1008.17 ± 0.13 kg/m3 and the mass density ([1]; 303.15 K, m1 = 0.72) was 1014.29 ± 0.14 kg/m3 and 1013.92 ± 0.14 kg/m3. For the same compound, the speed of sound ([1]; 308.15 K, m1 = 0.23) was 1533.6 ± 1.1 m/s and 1533.3 ± 1.1 m/s, the speed of sound ([1]; 308.15 K, m1 = 0.47) was 1546.9 ± 1.1 m/s and 1547 ± 1.1 m/s and the speed of sound ([1]; 308.15 K, m1 = 0.72) was 1560.4 ± 1.2 m/s and 1559.7 ± 1.2 m/s. The mass density ([1]; 308.15 K, m1 = 0.23) was 1000.33 ± 0.12 kg/m3 and 1000.36 ± 0.12 kg/m3, the mass density ([1]; 308.15 K, m1 = 0.47) was 1006.44 ± 0.13 kg/m3 and 1006.48 ± 0.13 kg/m3 and the mass density ([1]; 308.15 K, m1 = 0.72) was 1012.57 ± 0.14 kg/m3 and 1012.19 ± 0.14 kg/m3.

With `O` [water] the mass density [2] was 999.699 ± 0.1 kg/m3.
